{"source": "patent US20210113492A1", "about": "“METHOD FOR INHIBITING PROLIFERATION AND METASTASIS OF CANCER CELLS BY USING NAPHTHOQUINONE DERIVATIVE” (National Tsing Hua University, priority 2019, published 2021)", "molecular_target": "T1, NQO1 (Homo sapiens, UniProt P15559)", "T1 construct": "endogenous in cells; host or cells: OC3-IV2 (human oral squamous cell carcinoma), cytosolic fraction / lysate supernatant", "T1 sequence (P15559 whole entry)": "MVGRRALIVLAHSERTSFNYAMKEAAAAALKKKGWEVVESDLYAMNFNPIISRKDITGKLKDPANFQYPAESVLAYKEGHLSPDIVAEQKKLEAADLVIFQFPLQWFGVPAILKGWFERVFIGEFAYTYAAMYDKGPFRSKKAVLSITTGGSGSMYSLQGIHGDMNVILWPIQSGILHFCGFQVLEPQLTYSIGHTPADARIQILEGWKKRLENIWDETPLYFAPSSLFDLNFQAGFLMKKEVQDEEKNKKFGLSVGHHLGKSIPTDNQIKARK", "experiment": "NQO1 enzymatic activity assay (substrate reduction with NADH and WST1)", "format": "biochemical", "details": "cytosolic fractions of OC3-IV2 cells; isoplumbagin 5 μM and 10 μM, menadione 1X and 2X", "experimental": "FIG. 4 proves that isoplumbagin is a substrate of NQO1. The cytosolic fractions of OC3-IV2 cells were used for the NQO1 enzymatic activity assay. The NQO1 enzyme activity was calculated by measuring the simultaneous reduction of menadione or isoplumbagin with cofactor NADH and WST1 (a highly sensitive tetrazolium reagent) which leads to increased absorbance at 450 nm. NQO1 activity assay kit (#ab184867) was purchased from Abcam (Cambridge, Mass., USA). OC3-IV2 cells were lysed with 1X extraction buffer containing 1 mM phenylmethylsulfonyl fluoride (PMSF) for 15 min on ice, and then centrifuged at 17,000×g at 4° C. for 20 min. The supernatant was collected and then the protein concentration of each sample was determined by BCA assays (Santa Cruz Biotechnology). Diluted sample and reaction buffer were added into 96-wells plate containing menadione (1X and 2X) or different concentrations of isoplumbagin (5 μM and 10 μM) with cofactor NADH and WST1. The absorbance of reduced WST1 was measured at 450 nm wavelengths by a spectrophotometer. Data from three independent experiments are presented as mean ±SEM (*P<0.05 compared with no substrate, paired Student's t-test)."}
{"smiles": "CC1=CC(=O)c2ccccc2C1=O", "note": "[menadione, reference compound]", "values": [{"measurement": "substrate of NQO1 (reduction with NADH and WST1, absorbance at 450 nm)", "result": "substrates of NQO1"}]}
